Laboratory results published in PMC9963937, “Synergistic Combination of Irinotecan and Rapamycin Orally Delivered by Nanoemulsion for Enhancing Therapeutic Efficacy of Pancreatic Cancer” (Pharmaceutics, 2023).
Read-outs that look alike come from different tables or passages of the source.

Assays:
[1] = In vitro release from LBSNENP, USP Apparatus 2 dissolution; assay type: physicochemical; conditions: endpoint (60 min)
Method: The contents of irinotecan and rapamycin in LBSNENPir and LBSNENPra were detected through HPLC. To determine the irinotecan content, we used the Waters 600E HPLC system with the SunFire C18 column (4.6 mm × 250 mm I.D., 5 μm; Waters). The mobile phase consisted of 10 mM phosphate buffer (pH 3.0)/acetonitrile/tetrahydrofuran (65/35/2 v/v), the flow rate was 0.8 mL/min, the column was maintained at 40 °C, the injection volume was 20 µL, and the fluorescence detector was set at the excitation and emission wavelengths of 370 and 470 nm, respectively. To determine the rapamycin content, we used the JASCO HPLC system with the Inersil ODS-2 C18 column (4.0 mm × 150 mm I.D., 5 μm). The mobile phase was a mixture of acetonitrile and water (20/80 v/v), the flow rate was 1.0 mL/min, the column was maintained at 55 °C, the injection volume was 100 µL, and the UV detector was set at the wavelength of 278 nm. Each data point came from the mean of at least three individual trials. The assay method was also well validated before. […]
The in vitro release of irinotecan and rapamycin from LBSNENP was examined using the dissolution method on United States Pharmacopeia (USP) Apparatus 2 (VK7000, Vankel, UK). […] The contents of irinotecan and rapamycin were determined through HPLC as described in the earlier text. […]

[2] = test system: MIA PaCa-2 pancreatic cancer cell line; assay: MTT cell viability assay; assay type: cell-based; conditions: Homo sapiens, read-out: IC50 against MIA PaCa-2 cells
Method: To evaluate the cytotoxicity and combination effects of rapamycin and silymarin as well as free irinotecan, we performed the 3-(4,5-dimethylthiazol-2-yl)-2,5-diphenyl-2H-tetrazolium bromide (MTT) assay by using the MIA PaCa-2 pancreatic cancer cell line. Briefly, the cells were seeded in a 96-well plate at a density of 3 × 10^4 cells/well and incubated at 37 °C with 5% CO2 for 24 h. After 24 h, the cells were treated with different concentrations of free irinotecan (0–300 µM), rapamycin (0–300 µM), SN38 (0–300 nM), and silymarin (0–1000 µM). To determine the combination effect, the cells were treated with different ratios of irinotecan/rapamycin and SN38/rapamycin (1/0.3, 1/0.5, 1/1, and 1/2) and irinotecan/silymarin and SN38/silymarin (1/1 and 1/2). All the cells were incubated with the drugs for 24–48 h. Then, the MTT reagent and dimethyl sulfoxide were added for the formation and the dissolution of purple formazan crystals. The absorbance of each well was measured at 550 nm on a Cytation 3 cell imaging multimode reader (BioTek, Winooski, VT, USA). The half-maximal inhibitory concentration (IC50) and combination index (CI) of the drugs were calculated using CompuSyn Sofware (Paramus, NJ, USA) through the Chou–Talalay method. In the Chou–Talalay method, the CI values of <0.9, >1.1, and 0.9–1.1 indicated synergistic, antagonistic, and additive effects, respectively. Each data point was the mean of at least six individual experiments.

| dissolution percentage of raw rapamycin powder at the endpoint ([1]; 0.4% sodium lauryl sulfate solution, 37 °C, 100 rpm) | IC50 ([2]; MIA PaCa-2, 24 h) | IC50 ([2]; MIA PaCa-2, 48 h) | dissolution percentage of raw irinotecan powder at the endpoint ([1]; buffer pH 1.2, 37 °C, 50 rpm) | Compound |
| --- | --- | --- | --- | --- |
| ~32% | 2.98 ± 0.97 µM | 3.88 ± 1.17 µM | – | CO[C@H]1C[C@@H]2CC[C@@H](C)[C@@](O)(O2)C(=O)C(=O)N2CCCC[C@H]2C(=O)O[C@H]([C@H](C)C[C@@H]2CC[C@@H](O)[C@H](OC)C2)CC(=O)[C@H](C)/C=C(\C)[C@@H](O)[C@@H](OC)C(=O)[C@H](C)C[C@H](C)/C=C/C=C/C=C/1C [rapamycin, Rapamycin] |
| – | 4.78 ± 9.42 µM | 12.2 ± 4.56 µM | approximately 63% | CCc1c2c(nc3ccc(OC(=O)N4CCC(N5CCCCC5)CC4)cc13)-c1cc3c(c(=O)n1C2)COC(=O)[C@]3(O)CC [irinotecan, Irinotecan] |
